Values of other authors, collected in patent US20070298008A1, “Method of bowel cleansing” (Braintree Laboratories, Inc., priority 2002, published 2007).
Like-named read-outs stand apart in the source and are kept apart here.

Tested on: intestines and rectum

## CC(=O)Oc1ccc(C(c2ccc(OC(C)=O)cc2)c2ccccn2)cc1 [Bisacodyl]
enema
  Time to produce a bowel movement: about 20 minutes
suppository
  Time to produce a bowel movement: about an hour
